Laboratory results as given in ChEMBL document CHEMBL1121401, “Potential antitumor agents. 33. Quantitative structure--activity relationships for mutagenic activity and antitumor activity of substituted 4'-(9-acridinylamino)methanesulfonanilide derivatives” (J Med Chem, 1980).
The source made the active and inactive calls. No cut-off for these calls is given here.

Legend:
[1] = physchem
Description: Ionization constant (pKa)

[2] = species on record: Mus musculus
Description: Drug dose in (mg/kg)/day to provide an increase in life span of 40% was determined; nr refers to Particular level of biological response required not reached before drug toxicity supervened

[3] = test system: Salmonella typhimurium; conditions: Salmonella enterica subsp. enterica serovar Typhimurium
[4] = species on record: Mus musculus; remark: listed apart in the source
Description: Drug dose in (mg/kg)/day to provide an increase in life span of 40% was determined;nr refers to Particular level of biological response required not reached before drug toxicity supervened

pKa [1]	SMILES	Log 1/D40 [2]	Log M50 [3]	Log 1/D40 [4]
6.34	CS(=O)(=O)Nc1ccc(Nc2c3ccccc3nc3ccc(C(N)=O)cc23)cc1	Not reached	–	–
9.3	CNc1ccc2c(Nc3ccc(NS(C)(=O)=O)cc3)c3ccccc3nc2c1	–	–	–
6.57	CS(=O)(=O)Nc1ccc(Nc2c3ccccc3nc3cc(Cl)ccc23)cc1	–	–	–
7.23	Cc1ccc2nc3ccccc3c(Nc3ccc(NS(C)(=O)=O)cc3)c2c1	Not reached	–	–
7.57	COc1ccc2c(Nc3ccc(NS(C)(=O)=O)cc3)c3ccccc3nc2c1	–	–	–
7.49	Cc1ccc2c(Nc3ccc(NS(C)(=O)=O)cc3)c3ccccc3nc2c1	–	–	–
6.56	CS(=O)(=O)Nc1ccc(Nc2c3ccccc3nc3cc(Br)ccc23)cc1	–	–	–
7.48	COC(=O)Nc1ccc2c(Nc3ccc(NS(C)(=O)=O)cc3)c3ccccc3nc2c1	–	–	–
7	CS(=O)(=O)Nc1ccc(Nc2c3ccccc3nc3cc(N=[N+]=[N-])ccc23)cc1	–	–	–
6.87	COc1ccc2nc3ccccc3c(Nc3ccc(NS(C)(=O)=O)cc3)c2c1	Not reached	–	–
6.42	CS(=O)(=O)Nc1ccc(Nc2c3ccccc3nc3ccc(Cl)cc23)cc1	Not reached	–	–

Further lines, the compound ahead of its results:

SMILES	pKa [1]	Log 1/D40 [2]	Log M50 [3]	Log 1/D40 [4]
Cc1cc(NS(C)(=O)=O)ccc1Nc1c2ccccc2nc2ccccc12	7.38	–	–	–
Cc1cc(Nc2c3ccccc3nc3ccccc23)ccc1NS(C)(=O)=O	7.08	Not reached	–	–
CS(=O)(=O)Nc1ccc(Nc2c3ccccc3nc3cccc(Cl)c23)cc1	5.86	–	–	–
CS(=O)(=O)Nc1ccc(Nc2c3ccccc3nc3ccccc23)cc1Cl	6.44	Not reached	–	–
CS(=O)(=O)Nc1ccc(Nc2c3ccccc3nc3cc(C#N)ccc23)cc1	5.75	Not reached	inactive	–
Cc1cccc2nc3ccccc3c(Nc3ccc(NS(C)(=O)=O)cc3)c12	6.43	–	–	–
CCCCCCS(=O)(=O)Nc1ccc(Nc2c3ccccc3nc3ccccc23)cc1	–	Not reached	–	–
CS(=O)(=O)Nc1ccc(Nc2c3ccccc3nc3ccccc23)c([N+](=O)[O-])c1	4.86	Not reached	inactive	–
CS(=O)(=O)Nc1ccc(Nc2c3ccccc3nc3cc(NS(C)(=O)=O)ccc23)cc1	–	–	inactive	–
C[N+](C)=[N+]=Nc1ccc2c(Nc3ccc(NS(C)(=O)=O)cc3)c3ccccc3nc2c1	7.13	–	–	–
CS(=O)(=O)Nc1ccc(Nc2c3ccccc3nc3c(Cl)cccc23)cc1	5.92	–	–	Not reached
CS(=O)(=O)Nc1ccc(Nc2c3ccccc3nc3ccccc23)c(Cl)c1	6.34	Not reached	–	–
CS(=O)(=O)Nc1ccc(Nc2c3ccccc3nc3ccc([N+](=O)[O-])cc23)cc1	–	Not reached	–	–
CS(=O)(=O)Nc1ccc(Nc2c3ccccc3nc3ccccc23)c(N)c1	7.65	–	–	–
COc1cccc2c(Nc3ccc(NS(C)(=O)=O)cc3)c3ccccc3nc12	7.15	–	–	–
CS(=O)(=O)Nc1ccc(Nc2c3ccccc3nc3ccccc23)cc1[N+](=O)[O-]	–	Not reached	–	–
CS(=O)(=O)Nc1ccc(Nc2c3ccccc3nc3cnccc23)cc1	–	Not reached	–	–
COc1cccc2nc3ccccc3c(Nc3ccc(NS(C)(=O)=O)cc3)c12	–	Not reached	–	–
CS(=O)(=O)Nc1ccc(Nc2c3ccccc3nc3cc(S(C)(=O)=O)ccc23)cc1	5.65	Not reached	–	–
COc1cc(Nc2c3ccccc3nc3ccccc23)ccc1NS(C)(=O)=O [o-Amsacrine]	7.03	Not reached	–	–
